Experimental data from patent publication US20240226115A1, “AXL INHIBITOR COMPOUNDS” (ARCUS BIOSCIENCES, INC., priority 2021, published 2024).

biological target: T1, recombinant human TYRO3 (Homo sapiens, UniProt Q06418); assay: HTRF KinEASE-TK biochemical potency, TYRO3; conditions: 1 nM TYRO3, 700 μM ATP
T1 construct: purchased Invitrogen
T1 sequence (Q06418 41-890): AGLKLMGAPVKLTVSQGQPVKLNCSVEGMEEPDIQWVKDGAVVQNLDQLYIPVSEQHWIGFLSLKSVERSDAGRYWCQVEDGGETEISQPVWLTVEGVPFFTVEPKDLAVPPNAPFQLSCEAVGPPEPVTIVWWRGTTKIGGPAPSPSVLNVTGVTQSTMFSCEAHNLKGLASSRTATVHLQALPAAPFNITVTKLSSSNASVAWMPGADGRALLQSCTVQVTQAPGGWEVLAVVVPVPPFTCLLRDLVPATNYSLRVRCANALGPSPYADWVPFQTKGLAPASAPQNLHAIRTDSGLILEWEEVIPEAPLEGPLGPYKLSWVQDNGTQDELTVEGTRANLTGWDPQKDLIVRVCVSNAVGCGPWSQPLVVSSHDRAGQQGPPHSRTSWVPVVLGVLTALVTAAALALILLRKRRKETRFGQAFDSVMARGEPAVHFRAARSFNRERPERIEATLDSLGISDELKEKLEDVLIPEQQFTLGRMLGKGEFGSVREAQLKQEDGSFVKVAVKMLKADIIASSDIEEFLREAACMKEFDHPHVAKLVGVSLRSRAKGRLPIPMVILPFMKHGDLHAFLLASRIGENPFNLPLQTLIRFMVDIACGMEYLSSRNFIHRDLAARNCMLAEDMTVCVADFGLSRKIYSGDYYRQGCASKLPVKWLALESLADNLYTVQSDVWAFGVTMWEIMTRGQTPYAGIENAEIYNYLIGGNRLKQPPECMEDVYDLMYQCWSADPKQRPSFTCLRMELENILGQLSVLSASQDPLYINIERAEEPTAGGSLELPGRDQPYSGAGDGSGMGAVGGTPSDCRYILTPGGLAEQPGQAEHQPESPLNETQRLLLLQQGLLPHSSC
Method in brief: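 Enzyme preincubated with compound 1 h at RT; final 5 nM AXL or 1 nM TYRO3/MER, 800 nM TK substrate-biotin, 700 μM ATP, HEPES pH 7.4, MgCl2, 1% DMSO, 2 h at RT. HTRF 665/620 ratio read after streptavidin-XL665/cryptate antibody detection; percent activity relative to DMSO and pre-stopped controls.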

Compound | IC50 [µM]
O=C1NCCOc2cc(-c3n[nH]c4ncc(-c5ccc6c(c5)CCC(N[C@H]5CCOC5)CC6)cc34)ccc21 (stereo partly drawn) [Example 45, 8-[5-(7-{[(3S)—Oxolan-3-yl]amino}-6,7,8,9-tetrahydro-5H-benzo[7]annulen-2-yl)-1H-pyrazolo[3,4-b]pyridin-3-yl]-2,3,4,5-tetrahydro-1,4-benzoxazepin-5-one] | < 0.1
CC1(O)CCc2cc(-c3n[nH]c4ncc(-c5ccc6c(c5)CC[C@@H](N5CCCC5)CC6)cc34)ccc21 (stereo partly drawn) [Example 30, 1-Methyl-5-{5-[(7S)-7-(pyrrolidin-1-yl)-6,7,8,9-tetrahydro-5H-benzo[7]annulen-2-yl]-1H-pyrazolo[3,4-b]pyridin-3-yl}-2,3-dihydro-1H-inden-1-ol] | < 0.1
CC1(C)NS(=O)(=O)c2cc(-c3n[nH]c4ncc(-c5ccc6c(c5)CCC(N5CCC[C@@H]5CO)CC6)cc34)ccc21 (stereo partly drawn) [Example 34, 6-(5-{7-[(2R)-2-(Hydroxymethyl)pyrrolidin-1-yl]-6,7,8,9-tetrahydro-5H-benzo[7]annulen-2-yl}-1H-pyrazolo[3,4-b]pyridin-3-yl)-3,3-dimethyl-2,3-dihydro-1λ^6,2-benzothiazole-1,1-dione] | < 0.1
O=C1NCCOc2cc(-c3n[nH]c4ncc(-c5ccc6c(c5)CCN(C5COC5)CC6)cc34)ccc21 [Example 11, 8-(5-(3-(Oxetan-3-yl)-2,3,4,5-tetrahydro-1H-benzo[d]azepin-7-yl)-1H-pyrazolo[3,4-b]pyridin-3-yl)-3,4-dihydrobenzo[f][1,4]oxazepin-5(2H)-one] | < 0.1
O=C1NCCOc2cc(-c3n[nH]c4ncc(-c5ccc6c(c5)CCN(C5CC5)C6)cc34)ccc21 [Example 21, 8-(5-(2-Cyclopropyl-1,2,3,4-tetrahydroisoquinolin-6-yl)-1H-pyrazolo[3,4-b]pyridin-3-yl)-3,4-dihydrobenzo[f][1,4]oxazepin-5(2H)-one] | 0.1 to 1
C[C@@H]1CCCN1C1CCc2ccc(-c3cnc4[nH]nc(-c5cc(F)c6c(c5)OCCNC6=O)c4c3)cc2CC1 (stereo partly drawn) [Example 6, 6-Fluoro-8-(5-{7-[(2R)-2-methylpyrrolidin-1-yl]-6,7,8,9-tetrahydro-5H-benzo[7]annulen-2-yl}-1H-pyrazolo[3,4-b]pyridin-3-yl)-2,3,4,5-tetrahydro-1,4-benzoxazepin-5-one] | < 0.1
COCCN1CCc2cc(-c3cnc4[nH]nc(-c5ccc6c(c5)OCCNC6=O)c4c3)ccc2C1 [Example 13, 8-(5-(2-(2-Methoxyethyl)-1,2,3,4-tetrahydroisoquinolin-6-yl)-1H-pyrazolo[3,4-b]pyridin-3-yl)-3,4-dihydrobenzo[f][1,4]oxazepin-5(2H)-one] | < 0.1
O=C1NCCOc2cc(-c3n[nH]c4ncc(-c5ccc6c(c5)CCN(C5COC5)C6)cc34)ccc21 [Example 12, 8-(5-(2-(Oxetan-3-yl)-1,2,3,4-tetrahydroisoquinolin-6-yl)-1H-pyrazolo[3,4-b]pyridin-3-yl)-3,4-dihydrobenzo[f][1,4]oxazepin-5(2H)-one] | < 0.1
O=C1NCCOc2cc(-c3n[nH]c4ncc(-c5ccc6c(c5)CCC(N5CCC[C@H]5CO)CC6)cc34)ccc21 (stereo partly drawn) [Example 50, 8-(5-{7-[(2S)-2-(Hydroxymethyl)pyrrolidin-1-yl]-6,7,8,9-tetrahydro-5H-benzo[7]annulen-2-yl}-1H-pyrazolo[3,4-b]pyridin-3-yl)-2,3,4,5-tetrahydro-1,4-benzoxazepin-5-one] | < 0.1
Cc1cc2c(cc1-c1cnc3[nH]nc(-c4ccc5c(c4)OCCNC5=O)c3c1)CCC(N1CCC[C@H]1C)CC2 (stereo partly drawn) [Example 64, 8-(5-{3-Methyl-7-[(2R)-2-methylpyrrolidin-1-yl]-6,7,8,9-tetrahydro-5H-benzo[7]annulen-2-yl}-1H-pyrazolo[3,4-b]pyridin-3-yl)-2,3,4,5-tetrahydro-1,4-benzoxazepin-5-one] | < 0.1
O=C1NCCOc2cc(-c3n[nH]c4ncc(-c5ccc6c(c5)CCC(N5CCCC5)C6)cc34)ccc21 (stereo not shown) [Example 2, 8-{5-[6-(Pyrrolidin-1-yl)-5,6,7,8-tetrahydronaphthalen-2-yl]-1H-pyrazolo[3,4-b]pyridin-3-yl}-2,3,4,5-tetrahydro-1,4-benzoxazepin-5-one] | < 0.1
C[C@@H]1CCCN1C1CCc2ccc(-c3cnc4[nH]nc(-c5ccc6c(c5)OCCC6(C)O)c4c3)cc2CC1 (stereo partly drawn) [Example 29, 4-Methyl-7-(5-{7-[(2R)-2-Methylpyrrolidin-1-yl]-6,7,8,9-tetrahydro-5H-benzo[7]annulen-2-yl}-1H-pyrazolo[3,4-b]pyridin-3-yl)-3,4-dihydro-2H-1-benzopyran-4-ol] | < 0.1
C[C@@H]1CCCN1C1CCc2ccc(-c3cnc4[nH]nc(-c5ccc6c(c5)OCC5(CCC5)NC6=O)c4c3)cc2CC1 (stereo partly drawn) [Example 37, 8-(5-{7-[(2R)-2-Methylpyrrolidin-1-yl]-6,7,8,9-tetrahydro-5H-benzo[7]annulen-2-yl}-1H-pyrazolo[3,4-b]pyridin-3-yl)-4,5-dihydro-2H-spiro[1,4-benzoxazepine-3,1′-cyclobutan]-5-one] | < 0.1
CC[C@@H]1CCCN1C1CCc2ccc(-c3cnc4[nH]nc(-c5ccc6c(c5)OCCNC6=O)c4c3)cc2CC1 (stereo partly drawn) [Example 25, 8-(5-{7-[(2R)-2-Ethylpyrrolidin-1-yl]-6,7,8,9-tetrahydro-5H-benzo[7]annulen-2-yl}-1H-pyrazolo[3,4-b]pyridin-3-yl)-2,3,4,5-tetrahydro-1,4-benzoxazepin-5-one] | < 0.1
C[C@H]1CCCN1C1CCc2ccc(-c3cnc4[nH]nc(-c5ccc6c(c5)OCCNC6=O)c4c3)cc2CC1 (stereo partly drawn) [Example 43, 8-(5-{7-[(2S)-2-Methylpyrrolidin-1-yl]-6,7,8,9-tetrahydro-5H-benzo[7]annulen-2-yl}-1H-pyrazolo[3,4-b]pyridin-3-yl)-2,3,4,5-tetrahydro-1,4-benzoxazepin-5-one] | < 0.1
CC(C)(O)C(=O)N1CCc2ccc(-c3cnc4[nH]nc(-c5ccc6c(c5)OCCNC6=O)c4c3)cc2CC1 [Example 19, 8-(5-(3-(2-Hydroxy-2-methylpropanoyl)-2,3,4,5-tetrahydro-1H-benzo[d]azepin-7-yl)-1H-pyrazolo[3,4-b]pyridin-3-yl)-3,4-dihydrobenzo[f][1,4]oxazepin-5(2H)-one] | < 0.1
O=C1NCCOc2cc(-c3n[nH]c4ncc(-c5ccc6c(c5)CC(N5CCCC5)CC6)cc34)ccc21 (stereo not shown) [Example 3, 8-{5-[7-(Pyrrolidin-1-yl)-5,6,7,8-tetrahydronaphthalen-2-yl]-1H-pyrazolo[3,4-b]pyridin-3-yl}-2,3,4,5-tetrahydro-1,4-benzoxazepin-5-one] | < 0.1
O=C1NCCOc2cc(-c3n[nH]c4ncc(-c5ccc6c(c5)CCC(N[C@@H]5CCOC5)C6)cc34)ccc21 (stereo partly drawn) [Example 5, 8-[5-(6-{[(3R)—Oxolan-3-yl]amino}-5,6,7,8-tetrahydronaphthalen-2-yl)-1H-pyrazolo[3,4-b]pyridin-3-yl]-2,3,4,5-tetrahydro-1,4-benzoxazepin-5-one] | < 0.1
C[C@H]1CCCN1C1(C)CCc2ccc(-c3cnc4[nH]nc(-c5ccc6c(c5)OCCNC6=O)c4c3)cc2CC1 (stereo partly drawn) [Example 24, 8-(5-{7-Methyl-7-[(2S)-2-methylpyrrolidin-1-yl]-6,7,8,9-tetrahydro-5H-benzo[7]annulen-2-yl}-1H-pyrazolo[3,4-b]pyridin-3-yl)-2,3,4,5-tetrahydro-1,4-benzoxazepin-5-one] | < 0.1
